This experiment deals with Phosphatidylinositol 3-kinase regulatory subunit alpha/4,5-bisphosphate 3-kinase catalytic subunit alpha isoform (Homo sapiens, UniProt P27986+P42336). As to the kind of experiment: Inhibition of human PI3Kalpha (p110alpha/p85alpha) by ADP accumulation based HTRF assay. A general note: TR-FRET usually uses a lanthanide donor and a delayed reading to cut background.

pIC50: −log10 of the molar value.

Chain of Phosphatidylinositol 3-kinase regulatory subunit alpha/4,5-bisphosphate 3-kinase catalytic subunit alpha isoform (P27986 whole entry, canonical isoform): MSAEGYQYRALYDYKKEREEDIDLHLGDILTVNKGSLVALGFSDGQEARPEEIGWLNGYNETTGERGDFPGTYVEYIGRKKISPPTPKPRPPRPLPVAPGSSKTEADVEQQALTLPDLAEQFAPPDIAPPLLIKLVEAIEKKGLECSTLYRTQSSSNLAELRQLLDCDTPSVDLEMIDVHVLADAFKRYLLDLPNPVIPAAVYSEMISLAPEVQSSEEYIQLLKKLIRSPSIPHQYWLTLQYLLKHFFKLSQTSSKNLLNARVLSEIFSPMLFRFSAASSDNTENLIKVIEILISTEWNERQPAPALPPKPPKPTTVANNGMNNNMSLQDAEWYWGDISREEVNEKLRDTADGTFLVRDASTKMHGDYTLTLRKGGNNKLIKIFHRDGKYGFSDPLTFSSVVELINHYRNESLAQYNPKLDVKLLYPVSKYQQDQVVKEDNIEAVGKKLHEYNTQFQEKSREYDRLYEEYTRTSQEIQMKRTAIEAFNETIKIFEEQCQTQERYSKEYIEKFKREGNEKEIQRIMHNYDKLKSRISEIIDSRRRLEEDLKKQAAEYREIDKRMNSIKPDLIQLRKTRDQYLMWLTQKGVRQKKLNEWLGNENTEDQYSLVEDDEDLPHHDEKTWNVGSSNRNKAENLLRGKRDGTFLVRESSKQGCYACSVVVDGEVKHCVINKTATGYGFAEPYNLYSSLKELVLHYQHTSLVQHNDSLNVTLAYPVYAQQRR
Chain of Phosphatidylinositol 3-kinase regulatory subunit alpha/4,5-bisphosphate 3-kinase catalytic subunit alpha isoform (P42336 whole entry, canonical isoform): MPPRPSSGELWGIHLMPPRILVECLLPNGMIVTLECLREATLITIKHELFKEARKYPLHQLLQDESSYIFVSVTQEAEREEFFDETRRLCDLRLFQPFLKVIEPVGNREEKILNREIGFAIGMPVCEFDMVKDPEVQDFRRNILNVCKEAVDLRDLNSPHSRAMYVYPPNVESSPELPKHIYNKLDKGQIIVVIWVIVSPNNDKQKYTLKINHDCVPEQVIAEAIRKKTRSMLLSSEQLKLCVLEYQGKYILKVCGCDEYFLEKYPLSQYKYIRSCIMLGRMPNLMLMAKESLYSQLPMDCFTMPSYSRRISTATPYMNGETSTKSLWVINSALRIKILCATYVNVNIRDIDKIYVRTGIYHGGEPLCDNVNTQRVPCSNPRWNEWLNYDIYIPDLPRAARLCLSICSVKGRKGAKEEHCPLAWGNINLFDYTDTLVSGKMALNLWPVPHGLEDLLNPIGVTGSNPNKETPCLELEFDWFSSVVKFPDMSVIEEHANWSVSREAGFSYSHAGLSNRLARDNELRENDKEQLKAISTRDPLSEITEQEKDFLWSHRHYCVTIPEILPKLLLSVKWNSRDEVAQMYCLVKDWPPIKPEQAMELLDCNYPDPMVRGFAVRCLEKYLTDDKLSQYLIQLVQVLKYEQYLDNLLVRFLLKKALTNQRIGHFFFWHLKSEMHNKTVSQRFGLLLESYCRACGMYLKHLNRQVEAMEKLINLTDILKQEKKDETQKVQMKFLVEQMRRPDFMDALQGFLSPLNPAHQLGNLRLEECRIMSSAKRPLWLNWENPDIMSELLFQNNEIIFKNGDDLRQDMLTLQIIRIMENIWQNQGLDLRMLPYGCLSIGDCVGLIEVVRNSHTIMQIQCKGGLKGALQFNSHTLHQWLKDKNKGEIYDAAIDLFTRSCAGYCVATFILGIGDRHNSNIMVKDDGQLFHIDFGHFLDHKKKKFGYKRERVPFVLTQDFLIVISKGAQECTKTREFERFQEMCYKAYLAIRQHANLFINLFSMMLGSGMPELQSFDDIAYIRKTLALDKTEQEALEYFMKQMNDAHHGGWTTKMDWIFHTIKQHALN

Regarding `Cc1ccncc1-c1cn2cc(CN3CCN(S(C)(=O)=O)CC3)nc2c(N2CCOCC2)n1`, the pIC50 – broadly, −log10 of the IC50, conventionally taken in molar units – is 6.33.
Next, `CS(=O)(=O)N1CCN(Cc2cn3cc(-c4ccc(N)nc4)nc(N4CCOCC4)c3n2)CC1`: 6.77; `CS(=O)(=O)N1CCN(Cc2cn3cc(-c4cnc5[nH]ccc5c4)nc(N4CCOCC4)c3n2)CC1`: 6.95; `Cc1ncc(-c2cn3cc(CN4CCN(S(C)(=O)=O)CC4)nc3c(N3CCOCC3)n2)cn1`: 7.68.
Take `Cc1ccc(-c2cn3cc(CN4CCN(S(C)(=O)=O)CC4)nc3c(N3CCOCC3)n2)cn1`: the pIC50 is 6.11.
`COc1ccc(-c2cn3cc(CN4CCN(S(C)(=O)=O)CC4)nc3c(N3CCOCC3)n2)cn1`: the pIC50 is 5.34.
`CS(=O)(=O)N1CCC2(CC1)CN(Cc1cn3cc(-c4cnc(N)nc4)nc(N4CCOCC4)c3n1)C2` gave a pIC50 of 6.96.
The result for `Cc1nc(N)ncc1-c1cn2cc(CN3CCN(S(C)(=O)=O)CC3)nc2c(N2CCOCC2)n1` reads 7.49; that for `CN(C)CC(=O)N1CCN(Cc2cn3cc(-c4cnc(N)nc4)nc(N4CCOCC4)c3n2)CC1`, 7.47.
Turning to `CC(=O)Nc1ccc(-c2cn3cc(CN4CCN(S(C)(=O)=O)CC4)nc3c(N3CCOCC3)n2)cn1`, the pIC50 is 6.68.

These data come from BindingDB's records for doi:10.1016/j.bmcl.2012.03.090 (Spanish National Cancer Research Centre (Cnio), 2012).
